In article PMC8123555, “Precision targeting of the plasminogen activator inhibitor‐1 mechanism increases efficacy of fibrinolytic therapy in empyema” (Physiological Reports, 2021):

How the values were obtained:
[1] = system: chemically induced (TCN) pleural injury; settings: bolus, ref Idell et al., 2007; cited from earlier work
From the text: (§1) Plasminogen Activator Inhibitor‐1 (PAI‐1) is a mechanism‐based inhibitor of tissue type (tPA) and urokinase (uPA) plasminogen activators (PAs) (Carrell et al., 1991; Chaillan‐Huntington et al., 1997; Mourik et al., 1984) used for fibrinolytic therapy. Levels of PAI‐1 increase by up to three orders of magnitude in empyema (pleural sepsis), and organizing pleural injury (Aleman et al., 2003; Chung et al., 2005; Philip‐Joet et al., 1995), limiting endogenous and exogenous plasminogen activating activity that could help prevent or treat uncontrolled fibrin deposition induced by inflammation. First, DSP alone was used to treat pleural injury in both models to determine its effects on the endogenous fibrinolytic system. The results (Figure 2) clearly indicate that even a relatively high dose of DSP (2.0 mg/kg) is insufficient to mobilize endogenous fibrinolysis effectively once pleural injury has developed; there was no reversal effect with DSP alone. DSP alone, even at a 4‐fold higher dose (8.0 mg/kg), was also ineffective (GLIS>10) in treatment of empyema (Figure 2). Next, PAI‐1‐TFT with ...

[2] = system: Streptococcus pneumoniae induced empyema; settings: higher in empyema; ref Idell et al., 2007; cited from earlier work
From the text: as §1

[3] = system: chemically induced (TCN) pleural injury; test: Fibrinolytic therapy of TCN-induced pleural injury in rabbits (GLIS, pleural thickening); type: in vivo, rabbit; settings: outcome at 24 h
From the text: All animal procedures were approved by the Institutional Animal Care and Use Committee at The University of Texas Health Science Center at Tyler (IACUC protocols 499,616,617). Studies used female, pathogen‐free New Zealand white rabbits (3.0–3.6 kg; average age 18 weeks) from Charles River Laboratories (Wilmington, MA). These studies required a total of 107 rabbits, 43 for the model of TCN‐induced pleural injury and 64 for the model of empyema. […] Accumulation of pleural fluid and fibrin deposition was monitored using ultrasonography; detailed in the ultrasonography subsection. […] Animals were monitored carefully for signs of distress, pain, and worsening clinical status. […]
Development of pleural injury was monitored via ultrasonography. […]
For each animal, gross lung injury scores (GLIS) were calculated as previously described (Florova et al., 2015; Karandashova et al., 2013; Komissarov et al., 2013). […] Pleural thickening was measured using morphometry, as previously described (Komissarov et al., 2016).

FITC‐fibrin [4] = test: Fibrinolytic activity in pleural fluids (FITC-fibrin film assay), empyema; type: in vivo, rabbit; settings: PAI-1-TFT with 2.0 mg/kg DSP, infectious pleural injury; for Steady-state level of pleural fluid fibrinolytic activity: relative to supplemented baseline
Experimental: (§2) A Pilot Fibrinolytic Assay (FPA96F) was used to measure fibrinolytic potential (Beckert et al., 2019; Florova et al., 2015) and fibrinolytic activity (Florova et al., 2015, 2018; Komissarov et al., 2016) in pleural fluid samples. To prepare a FITC‐fibrin film, a 1:1 mixture of FITC‐tagged and unlabeled fibrinogen (0.4 mg/ml) in 0.05 M Hepes/NaOH (pH 7.5, 130 mM NaCl, 5 mM CaCl2) buffer at room temperature was transferred to black 96‐well flat bottom plates from Costar (Corning Inc, NY). Human thrombin (final concentration 10 nM) was added to each well and plates were dried overnight in a dark chemical hood at room temperature. 96‐well plates with FITC‐fibrin film were washed three times with 0.3 ml of cold Hepes/NaOH buffer and stored at −20°C up to one year. Fibrinolytic activity in pleural fluids was calculated from the slopes of time‐dependences of an increase in the fluorescence emission at 512 nm (excitation at 490 nm) due to the degradation of FITC‐fibrin. Fibrinolytic potential was determined as the difference between fibrinolytic activity in samples of pleural fluid at baseline (BL) or 24 h measured with and without supplementation with sctPA (Florova et al., 2015). To determine whether PAI‐1‐TFT affects fibrinolytic potential in rabbits, BL values were plotted against fibrinolytic potential at 24 h and the linear correlation was determined using Sigmaplot 14.0.

FITC‐fibrin [5] = test: Fibrinolytic activity in pleural fluids (FITC-fibrin film assay), TCN-induced injury; type: in vivo, rabbit; settings: PAI-1-TFT with 2.0 mg/kg DSP, chemically induced injury; for Steady-state level of pleural fluid fibrinolytic activity: relative to supplemented baseline
Experimental: as §2

Row | Substance | Minimal effective dose (MED) of plasminogen activator alone [1] [mg/kg] | MED for empyema relative to MED in TCN-induced pleural injury [2] [fold] | Gross lung injury score (GLIS) ([3]; sctPA 72.5 µg/kg alone (1/2 of MED), n = 5) | kobs of decrease in pleural fluid fibrinolytic activity to steady state (FITC‐fibrin [4]) [min⁻¹] | Steady-state level of pleural fluid fibrinolytic activity (FITC‐fibrin [4]) [%] | kobs of decrease in pleural fluid fibrinolytic activity to steady state (FITC‐fibrin [5]) [min⁻¹] | Steady-state level of pleural fluid fibrinolytic activity (FITC‐fibrin [5]) [%] | Gross lung injury score (GLIS) ([3]; scuPA 62.5 µg/kg alone (1/8 of MED), n = 6)
1 | Alteplase [sctPA, reference compound] | 0.145 | 13.8 | > 10 | 0.48 ± 0.07 | 1.5 | 0.40 ± 0.11 | 2.7 | 
2 | Prourokinase [scuPA] | 0.5 | 4 |  | 0.16 ± 0.06 | 2.5 | 0.09 ± 0.06 | 5.6 | > 10
